Reference: ChEMBL document CHEMBL5604063, “ASAP - DENV-2 NS2B-NS3 protease fluorescence dose response” (2024)
Several values for one entry are separate records, joined by “and”; a condition that tells them apart may be missing. Identical values can stand only once.

What was measured:
Genome polyprotein [1] = molecular target: T1, Genome polyprotein (dengue virus type 2, UniProt P29990); format: functional, Thailand/16681/1984
Genome polyprotein [2] = molecular target: T1, Genome polyprotein; format: functional, Thailand/16681/1984; remark: listed apart in the source

T1 sequence (P29990 1346-1475 limits assumed): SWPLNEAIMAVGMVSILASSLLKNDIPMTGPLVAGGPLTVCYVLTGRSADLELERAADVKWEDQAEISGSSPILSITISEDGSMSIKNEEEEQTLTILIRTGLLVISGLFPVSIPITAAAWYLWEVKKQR
T1 sequence (P29990 1476-2093 limits assumed): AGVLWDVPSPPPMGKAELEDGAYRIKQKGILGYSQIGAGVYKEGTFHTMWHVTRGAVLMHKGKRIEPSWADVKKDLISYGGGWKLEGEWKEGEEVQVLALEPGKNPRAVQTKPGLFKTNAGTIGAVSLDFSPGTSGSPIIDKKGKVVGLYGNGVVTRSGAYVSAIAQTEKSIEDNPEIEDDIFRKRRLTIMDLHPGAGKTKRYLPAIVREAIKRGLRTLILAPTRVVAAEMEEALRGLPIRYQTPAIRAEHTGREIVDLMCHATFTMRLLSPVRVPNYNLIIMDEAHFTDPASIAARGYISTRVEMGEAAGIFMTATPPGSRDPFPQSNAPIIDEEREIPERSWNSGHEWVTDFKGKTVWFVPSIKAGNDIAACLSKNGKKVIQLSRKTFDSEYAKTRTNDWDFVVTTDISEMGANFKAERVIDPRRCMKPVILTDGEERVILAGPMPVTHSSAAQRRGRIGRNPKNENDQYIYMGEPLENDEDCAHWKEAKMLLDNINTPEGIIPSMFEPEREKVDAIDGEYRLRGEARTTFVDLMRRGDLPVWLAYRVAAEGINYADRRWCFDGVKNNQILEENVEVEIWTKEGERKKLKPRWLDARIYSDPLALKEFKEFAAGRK

Compound | IC50 (Genome polyprotein [1]) | IC50 (Genome polyprotein [2])
NCCc1csc2cc(C(=O)Nc3cc([C@H]4CCOC4)ccn3)ccc12 | > 100 µM | > 99.5 µM
Cc1c(C(=O)Nc2ccc3c(c2)CCS3(=O)=O)cc(C2CC2)n1C | > 100 µM | > 99.5 µM
Cc1c(C(=O)Nc2ccc3c(c2)CCCC(=O)N3C)cc(C2CC2)n1C | > 100 µM | > 99.5 µM
N#Cc1cccc(-c2nc3c(C(=O)Nc4ccc5c(c4)CNC5)cc(F)cc3[nH]2)c1 | 10.9 µM and 29.7 µM | 6.2 µM and 4.83 µM
O=C(Nc1cc2c(c(-c3c[nH]c(=O)c(F)c3)c1)CNC2)c1cc(F)cc2[nH]ncc12 | 38.6 µM and 68.6 µM | 68.4 µM
COc1cc(OC)cc([C@H]2CCN(C(=O)Nc3ccc4c(c3)CNC4)C2)c1 | > 100 µM | > 99.5 µM
COCn1ncc2c(C(=O)Nc3ccc4c(c3)CNC4)cc(Cl)cc21 | > 100 µM | > 99.5 µM
CO[C@H]1C[C@H](n2ncc3c(C(=O)Nc4ccc5c(c4)CNC5)cc(Cl)cc32)C1 | > 100 µM | > 99.5 µM
O=C(Nc1cc(-c2cccnc2)ccn1)c1cn2c(n1)CCC2 | > 100 µM | > 99.5 µM
CC1(c2nc(C(=O)Nc3cc(-c4cccnc4)ccn3)no2)CC1 | > 100 µM | > 99.5 µM
COC(=O)c1cc(C(=O)Nc2ccc3c(c2)CNC3)cc2[nH]ccc12 | > 100 µM | > 99.5 µM
N#Cc1cc2c(cc1NC(=O)c1cc(F)cc3[nH]ncc13)CNC2 | 16.3 µM and 32 µM | 32.5 µM and 25.1 µM
CCOc1cccc(-c2cccc(NC(=O)c3cc(C4CC4)n(C)c3C)n2)c1 | > 100 µM | > 99.5 µM
CC(C)NC(=O)[C@H](Nc1ccc2c(c1)CN(C)C2)c1cc(Cl)cc2[nH]ncc12 | 57.6 µM and > 100 µM | > 99.5 µM
Cc1c(C(=O)Nc2cccc(-c3ccc(O)nc3)c2)cc(C2CC2)n1C | > 100 µM | > 99.5 µM
Fc1cc(CNc2ccc3c(c2)CNC3)c2cc[nH]c2c1 | > 100 µM | > 99.5 µM
CCc1cccc(-c2nc3c(C(=O)Nc4ccc5c(c4)CNC5)cc(F)cc3[nH]2)c1 | 88.9 µM and > 100 µM | 14.5 µM and 7.53 µM

Compound | IC50 (Genome polyprotein [1]) | IC50 (Genome polyprotein [2])
O=C(Nc1ccc2c(c1)CNC2)c1cc(F)cc2[nH]c(-c3ccc(F)cc3)nc12 | 9.17 µM and 43.9 µM | 4.84 µM and 4.4 µM
CC(C)n1ncc2c(C(=O)Nc3ccc4c(c3)CNC4)cc(Cl)cc21 | > 100 µM | > 99.5 µM
Cc1cc(=O)[nH]c(-c2cccc(NC(=O)c3cc(C4CC4)n(C)c3C)c2)n1 | > 100 µM | > 99.5 µM
Cc1ccc(NC(=O)c2cc(C3CC3)n(C)c2C)cc1-c1cccnc1 | > 100 µM | > 99.5 µM
C=CC[C@H]1NCc2cc(N[C@H](C(=O)NCC(F)F)c3cc(Cl)cc(C4CC4)c3)ccc21 | > 100 µM | > 99.5 µM
COc1cc(-c2cc(NC(=O)c3cc(F)cc4[nH]ncc34)cc3c2CNC3)ccn1 | 29 µM and 73.2 µM | 42.4 µM and 32.7 µM
COCCN1C(=O)CCc2cc(NC(=O)c3cc(C4CC4)n(C)c3C)ccc21 | > 100 µM | > 99.5 µM
O=C(Nc1cc(-c2cccnc2)ccn1)c1cnn2c1CCCC2 | 16.5 µM and 19.7 µM | 18 µM and 13.8 µM
Cc1c(C(=O)Nc2cccc(Cn3ccccc3=O)c2)cc(C2CC2)n1C | > 100 µM | > 99.5 µM
CC(C)n1cc2c(C(=O)Nc3ccc4c(c3)CNC4)cc(Cl)cc2n1 | > 100 µM | > 99.5 µM
Cc1c(C(=O)Nc2cccc(C(=O)NC3CC3)c2)cc(C2CC2)n1C | > 100 µM | > 99.5 µM
Cc1c(C(=O)Nc2cc(C#N)cn(C)c2=O)cc(C2CC2)n1C | > 100 µM | > 99.5 µM
O=C(Nc1cc(-c2cccnc2)ccn1)c1cc(C2CC2)oc1C1CC1 | > 100 µM | > 99.5 µM
O=C(Nc1cc2c(c(C3=CCS(=O)(=O)CC3)c1)CNC2)c1cc(F)cc2[nH]ncc12 | 34.6 µM and 46.6 µM | 41.1 µM and 29.7 µM
O=C(Nc1cc(-c2cccnc2)ccn1)c1sc2c(c1Br)CNC2 | > 100 µM | > 99.5 µM
Cn1ncc(C(=O)Nc2cc(-c3cccnc3)ccn2)c1C1CC1 | > 100 µM | > 99.5 µM
O=C(Nc1cc2c(c(C3=CCOCC3)c1)CNC2)c1cc(F)cc2[nH]ncc12 | 27.2 µM and 45.2 µM | 29.7 µM and 19.8 µM
